In paper PMC5500991, “Substituted arylsulphonamides as inhibitors of perforin-mediated lysis” (European Journal of Medicinal Chemistry, 2017):

Legend:
[1] = set-up: method as in PMID 28110869; conditions: sodium salt in water at room temperature; cited from earlier work
[2] = set-up: method as in PMID 28110869; conditions: parent remaining after 30 min, rat microsomes; cited from earlier work
[3] = target: T1, perforin delivered by KHYG1 NK cells (Homo sapiens, UniProt P14222); test: KHYG1 inhibitory assay: lysis of 51Cr-labelled K562 target cells by KHYG1 NK cells; format: cell-based; conditions: 51Cr-labelled K562 target cells co-incubated with KHYG1 human NK cells, vs untreated control, n = 4
T1 construct: The use of whole NK cells to deliver perforin provides a more realistic model of conditions in vivo; endogenous in cells; host or cells: KHYG1 human NK cells (effector); K562 leukemia target cells
T1 sequence (P14222 22-555): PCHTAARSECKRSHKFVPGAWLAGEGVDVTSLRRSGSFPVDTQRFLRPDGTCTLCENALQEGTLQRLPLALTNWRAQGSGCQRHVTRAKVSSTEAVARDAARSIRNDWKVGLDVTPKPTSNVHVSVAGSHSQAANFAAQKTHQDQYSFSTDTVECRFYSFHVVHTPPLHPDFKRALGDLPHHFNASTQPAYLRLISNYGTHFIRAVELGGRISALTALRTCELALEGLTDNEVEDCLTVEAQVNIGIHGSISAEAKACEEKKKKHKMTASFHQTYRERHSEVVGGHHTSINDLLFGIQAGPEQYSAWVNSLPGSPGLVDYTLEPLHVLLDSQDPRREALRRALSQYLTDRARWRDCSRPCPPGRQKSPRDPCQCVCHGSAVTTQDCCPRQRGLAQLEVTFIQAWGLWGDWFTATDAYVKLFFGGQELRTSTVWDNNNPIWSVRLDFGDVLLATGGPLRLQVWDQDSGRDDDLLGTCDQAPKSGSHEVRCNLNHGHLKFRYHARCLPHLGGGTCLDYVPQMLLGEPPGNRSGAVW
Description: The inhibitory function is then determined by identifying the number of untreated or inhibitor treated effector cells required to kill the same number of targets.

[4] = set-up: method as in PMID 28110869; conditions: sodium salt, 24 h at 20 °C in water; cited from earlier work
[5] = Toxicity to KHYG1 NK cells (Trypan blue exclusion); format: cell-based, human; conditions: human, viability of KHYG1 NK cells after 24 h, n = 3
Description: The toxicity assay was carried out in exactly the same manner as the killing assay above, but instead of adding the labelled K562 target cells, 100 μL of RPMI 0.1% BSA was added. Cells were incubated for 4 h at 37 °C and then washed ×3 in RPMI + 0.1% BSA. […] Trypan blue was added to each well. Viable (clear) cells and total (clear + blue) cells were counted, and the percentage of viable cells was calculated compared to DMSO treated cell control (% viability).

[6] = In vivo plasma pharmacokinetics in mice; conditions: mouse plasma, 10 mg/kg i.p. in 20% hydroxypropyl-β-cyclodextrin
Description: The in vivo PK parameters were measured for seven compounds selected on the basis of the in vitro assessment described above. Plasma pharmacokinetics were determined in male CD-1 mice for compounds 3, 10, 11, 26, 50, 58 and 59 (Table 6). Blood samples were collected at 5–8 time-points after dosing the compounds at 10 mg/kg in a solution of 20% hydroxypropyl-β-cyclodextrin by intraperitoneal (IP) injection. For analysis of the samples, chromatographic conditions were optimised by HPLC for each compound of interest and an internal standard. A liquid chromatography with tandem mass spectrometry (LC-MS/MS) method was then developed and validated for quantitation of each analyte.
PK studies were carried out in female C57BL/6J (female) mice using IP administration of test compound, dosing at 10 mg/kg in a solution of 20% hydroxypropyl-β-cyclodextrin. Mice (n=3 at each time point) were culled with excess inhalation of CO2 and blood collected by cardiac puncture at 5-8 time points after dosing in ice cold EDTA tubes. Plasma was separated by centrifuging at 6000 rpm for 5 min and stored at -80°C until analysis by LC-MS/MS. Frozen plasma was thawed on wet ice on the day of analysis. Ten μL of sample was transferred to a clean microcentrifuge tube and mixed with ice cold acetonitrile (40 μL containing internal standard) to precipitate the plasma proteins. The tubes were centrifuged at 13000 rpm for 5 min to obtain a clear supernatant which was mixed with 0.01% formic acid-water (1:2). Ten to twenty µL was injected into the LC-MS/MS to measure the analyte concentration in the sample. The samples were quantitated against a calibration curve of known analyte concentrations run in test species blank plasma (sourced from Innovative Research, USA). The concentration vs time data was then fitted into a pharmacokinetic software program (Phoenix WinNonlin v6.2) to calculate the PK parameters including T½, Cmax and AUC0-∞.

inhibition at 10 µM [3]: 67.5 ± 17.5% | AUC0-∞ [6]: 220 µM·h | Cmax [6]: 10 µM | T1/2 [6]: 12.0 h
Compound: CN1Cc2cc(-c3ccc(-c4cncc(NS(=O)(=O)c5ccc(F)cc5F)c4)s3)ccc2C1=O [Compound 3]
Solubility [1]: 1080 µg/mL | Microsome Stability (%) Rat [2]: 99% | Stability in Solution (% parent remaining) [4]: 82% | viability at 24 h, 10 µM [5]: 100%
